{
  "source": "paper PMC8133002",
  "about": "“Disruption of microtubule function in cultured human cells by a cytotoxic ruthenium(II) polypyridyl complex” (Chemical Science, 2019)",
  "key": {"porcine brain tubulin": {"test_system": "porcine brain tubulin", "assay": "Isothermal titration calorimetry, free (unpolymerized) tubulin at 4 °C", "assay_type": "binding", "conditions": "association constant, ITC", "description": "(§1) ITC experiments were performed using a Microcal VP-ITC (Malvern) instrument. For polymerized porcine brain tubulin the calorimeter was set at 37 °C. For depolymerized porcine brain tubulin the calorimeter was set at 4 °C. Tubulin concentration was kept below 3 mg mL^−1 to ensure that minimal microtubule formation before any polymerization assays were performed in preparation for ITC experiments. Reverse titrations were used in all ITC experiments due to the low solubility of RPC2 in aqueous solutions. A typical ITC experiment involved fourteen 20 μL injections of tubulin (∼30 μM heterodimers, or 2 mg mL^−1) into a 1.45 mL cell of ligand solution. The ITC thermograms were corrected for titrate and titrant dilution effects by performing the appropriate blank experiments and correcting the observed heats by subtracting the heats of dilution. Corrected ITC titrations were fit with a nonlinear regression algorithm using CHASM, an ITC data analysis program developed in the Lewis laboratory to determine the thermodynamic parameters, including the association constant (K) and changes in free energy (ΔG), enthalpy (ΔH), and entropy (−TΔS).\nIsothermal titration calorimetry (ITC) was used to measure the binding thermodynamics of RPC2 with tubulin and MTs. […]"}, "[1]": {"target": "T1, preformed microtubules (polymerized porcine brain tubulin) (Sus scrofa, UniProt P02550+P02554)", "T1 construct": "For depolymerized porcine brain tubulin the calorimeter was set at 4 °C; purchased Cytoskeleton Inc., (Denver. CO); host or cells: porcine brain (tissue-purified)", "T1 sequence (P02550 whole entry)": "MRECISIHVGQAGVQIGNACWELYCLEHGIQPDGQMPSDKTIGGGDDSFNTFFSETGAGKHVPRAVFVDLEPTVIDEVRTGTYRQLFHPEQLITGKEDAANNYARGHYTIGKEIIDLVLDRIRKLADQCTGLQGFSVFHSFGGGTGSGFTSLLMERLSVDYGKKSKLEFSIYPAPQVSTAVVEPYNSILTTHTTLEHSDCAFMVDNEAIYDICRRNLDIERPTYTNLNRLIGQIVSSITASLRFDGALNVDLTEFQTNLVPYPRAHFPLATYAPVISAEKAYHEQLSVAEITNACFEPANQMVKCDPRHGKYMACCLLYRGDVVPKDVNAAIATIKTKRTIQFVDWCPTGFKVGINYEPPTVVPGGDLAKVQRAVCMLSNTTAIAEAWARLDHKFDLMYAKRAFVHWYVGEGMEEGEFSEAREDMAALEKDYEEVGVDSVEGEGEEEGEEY", "T1 sequence (P02554 whole entry)": "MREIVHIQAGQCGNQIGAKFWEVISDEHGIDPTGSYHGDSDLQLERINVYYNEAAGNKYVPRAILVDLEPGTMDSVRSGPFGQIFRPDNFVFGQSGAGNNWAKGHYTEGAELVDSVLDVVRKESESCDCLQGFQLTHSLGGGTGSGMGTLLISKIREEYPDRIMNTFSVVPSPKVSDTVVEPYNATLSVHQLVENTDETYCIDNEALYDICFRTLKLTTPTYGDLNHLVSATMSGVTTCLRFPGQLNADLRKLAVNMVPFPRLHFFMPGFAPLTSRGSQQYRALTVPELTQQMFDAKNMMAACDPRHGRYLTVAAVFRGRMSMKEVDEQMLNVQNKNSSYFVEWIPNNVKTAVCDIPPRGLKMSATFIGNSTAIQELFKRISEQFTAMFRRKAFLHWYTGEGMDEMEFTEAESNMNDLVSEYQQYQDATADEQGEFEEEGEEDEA", "assay": "Isothermal titration calorimetry, preformed microtubules at 37 °C", "assay_type": "binding", "conditions": "ITC", "description": "as §1\nIsothermal titration calorimetry (ITC) was used to measure the binding thermodynamics of RPC2 with tubulin and MTs. Reverse titrations (protein introduced into solutions with a fixed ligand concentration) were done as the poor solubility of RPC2 limited its concentration range. […] Experiments were either performed starting at 4 °C or 37 °C to obtain a population of tubulin in the free, unpolymerized state (4 °C) or polymerized state as MTs (37 °C), as these two structures present a different collection of binding sites to the ligand."}, "MTs": {"test_system": "MTs", "design": "method as in PMID 15057285, PMID 29523799", "conditions": "competitive binding titrations; cited from earlier work"}, "H358 [2]": {"test_system": "H358", "assay": "Cytotoxicity IC50 against H358 cells", "assay_type": "cell-based", "conditions": "Homo sapiens, NCI-H358"}, "MCF7": {"test_system": "MCF7", "assay": "Cytotoxicity IC50 against MCF7 cells", "assay_type": "cell-based", "conditions": "Homo sapiens"}, "[3]": {"test_system": "microtubules formed from porcine brain tubulin", "assay": "Electron microscopy of polymerized tubulin", "assay_type": "biochemical", "conditions": "10 μM", "excerpt": "Aliquots of polymerized tubulin were placed on 300-mesh carbon-coated, Formvar-treated copper grids and immediately stained with 5–10 successively applied drops of 1% (w/v) uranyl acetate. Excess stain was wicked from the grids with torn filter paper. The grids were examined in a Hitachi H-9500 High-resolution Transmission Electron Microscope."}, "MCF10": {"test_system": "MCF10", "conditions": "cited from earlier work"}, "HUVEC": {"test_system": "HUVEC", "conditions": "cited from earlier work"}, "[4]": {"test_system": "free tubulin in H358 cells", "assay": "Western blot of free tubulin in cytosol of H358 cells", "assay_type": "cell-based, human", "conditions": "PTX 0.1 μM or RPC2 1.7 μM, 12 h", "description": "[…] The confluent 60 mm dishes of cells were washed 3 times with 37 °C PBS, then lysed in microtubule stabilization buffer (Tris–HCl pH 6.8, 20 mM, NaCl 140 mM, MgCl2 1 mM, NP40 0.5%, EGTA 2 mM, 10 μM of Taxol) and protease inhibitors (100× Protease Inhibitor Cocktail (PIC) and 100× phenylmethane sulfonyl fluoride (PMSF)). Then, the cells were scraped, mixed and quickly transfer to microtubes. These samples were then spun at 10 000 rpm for 20 minutes, the supernatants containing free tubulin were collected and a bicinchoninic acid (BCA) protein assay was performed to check the protein quantity. Equal amounts of protein sample were prepared in Laemmli sample buffer and were boiled for 5 min at 95 °C. Proteins were resolved on a 12% polyacrylamide gel. The proteins were transferred to a nitrocellulose membrane for 1.5 h at 100 V. The nitrocellulose membrane was stained for 1 min with Ponceau Red to verify the efficiency of the transfer. Then, the membrane was blocked in 5% skim milk for 1 h at room temperature and incubated with primary alpha tubulin monoclonal antibody in 5% BSA overnight at 4 °C. The membrane was washed 3 times with TBST buffer before being probed with secondary antibodies conjugated to HRP, then the membrane was incubated for 1 h at room temperature before it was washed 3 times again with TBST buffer. […]"}, "[5]": {"test_system": "MCF7 and MCF10a cells expressing GFP-EB3", "assay": "Spinning disk confocal imaging of GFP-EB3 comets in live cells", "assay_type": "cell-based, human", "conditions": "IC50 dose", "description": "MCF7 cells were cultured in phenol-red DMEM media (HyClone™, GE healthcare) supplemented with 10% FBS and penicillin/streptomycin at 37 °C in 5% CO2. MCF10A cells were cultured in low-calcium phenol-red DMEM/F12 (HyClone™, GE healthcare) supplemented with final concentration of 5% horse serum, 20 ng mL^−1 EGF, […] hydrocortisone, 100 ng mL^−1 Cholera toxin, 10 μg mL^−1 insulin, and 1% pen-strep. For live imaging, 500 000 cells per mL of both MCF7 and MCF10A cells were transfected with the cDNA (EGFP-EB3), and then cultured on 10 μg mL^−1 fibronectin coated 35 mm glass-bottom dishes (Cellvis, cat#: D35-20-1.5-N). Transfection of EGFP-EB3 was performed using a Lonza Nucleofector Device with Ingenio electroporation kit (Cat# MIR 50112, Mirus). Cells were treated with RPC2 18–24 hours post-transfection to allow time for cDNA expression. To minimize photobleaching, phenol-free DMEM was supplemented with 10% FBS and 25 mM HEPES, pH = 7.2 replaced the original media and was administered before RPC2 treatment. Time-lapse imaging was obtained before, 30 min, 1 h, 2 h, and 3 h after RPC2 treatment for both MCF7 and MCF10A. Images were obtained on a Zeiss Axiovert (Jena, Germany) microscope with a Zeiss alpha Plan-Fluar 100×, 1.45 NA oil objective and a spinning disk confocal scan head (Yokogawa CSU-X1, Tokyo, Japan). […]"}, "H358 [6]": {"test_system": "H358", "conditions": "cited from earlier work"}, "mouse fibroblast cells [7]": {"test_system": "mouse fibroblast cells", "design": "method as in PMID 6103535", "conditions": "PTX 0.25 μM, cited from earlier work"}, "mouse fibroblast cells [8]": {"test_system": "mouse fibroblast cells", "design": "method as in PMID 20059301", "conditions": "mouse fibroblast cell line; cited from earlier work"}, "[9]": {"conditions": "rats, intraperitoneal injection; cited from earlier work"}, "[10]": {"conditions": "mice, intraperitoneal injection; cited from earlier work"}, "MCF10 and MCF7 cells": {"test_system": "MCF10 and MCF7 cells", "design": "method as in PMID 28605571", "conditions": "cited from earlier work"}},
  "note": "Like-named read-outs stand apart in the source and are kept apart here.",
  "data": [
    {"molecule": "CC(=O)O[C@@]12CO[C@@H]1C[C@H](O)[C@@]1(C)C(=O)[C@H](O)C3=C(C)[C@@H](OC(=O)[C@H](O)[C@@H](NC(=O)OC(C)(C)C)c4ccccc4)C[C@@](O)([C@@H](OC(=O)c4ccccc4)[C@H]21)C3(C)C", "note": "[DTX, docetaxel]", "values": [
      {"measurement": "K", "setting": "porcine brain tubulin", "value": "8.1e+06", "unit": "M⁻¹"},
      {"measurement": "ΔG", "setting": "[1]; MT, 37 °C", "value": "-9.2 ± 0.9", "unit": "kcal/mol"},
      {"measurement": "ΔH", "setting": "[1]; MT, 37 °C", "value": "-33.4 ± 6.5", "unit": "kcal/mol"},
      {"measurement": "Kd", "setting": "[1]; preformed MTs, read-out: associative binding constant K to preformed microtubules (converted)", "value": 182, "unit": "nM"},
      {"measurement": "K", "setting": "[1]; association constant, MT, 37 °C", "value": "5.5e+06", "unit": "M⁻¹"},
      {"measurement": "association constant with MTs", "setting": "MTs", "value": "3.09e+07", "unit": "M⁻¹"}
    ]},
    {"molecule": "COC(=O)Nc1nc2ccc(C(=O)c3cccs3)cc2[nH]1", "note": "[NCZ, nocodazole]", "values": [
      {"measurement": "IC50", "setting": "H358 [2]", "value": 1000, "unit": "nM"},
      {"measurement": "IC50", "setting": "MCF7", "value": 3200, "unit": "nM"},
      {"measurement": "Appearance of MTs in TEM images", "setting": "[3]", "value": "only small MT fragments or tubulin dimers are apparent"},
      {"measurement": "IC50", "setting": "MCF10", "value": 480, "unit": "nM"},
      {"measurement": "IC50", "setting": "HUVEC", "value": 200, "unit": "nM"}
    ]},
    {"molecule": "CC(=O)O[C@H]1C(=O)[C@@]2(C)[C@H]([C@H](OC(=O)c3ccccc3)[C@]3(O)C[C@H](OC(=O)[C@H](O)[C@@H](NC(=O)c4ccccc4)c4ccccc4)C(C)=C1C3(C)C)[C@]1(OC(C)=O)CO[C@@H]1C[C@@H]2O", "note": "[PTX, paclitaxel]", "values": [
      {"measurement": "Amount of free tubulin in the cytosol (western blot)", "setting": "[4]", "value": "substantially reduce the amount of free tubulin"},
      {"measurement": "time point at which changes in MT comet motion were apparent", "setting": "[5]", "value": 30, "unit": "min"},
      {"measurement": "IC50", "setting": "H358 [6]", "value": 100, "unit": "nM"},
      {"measurement": "IC50", "setting": "MCF10", "value": 200, "unit": "nM"},
      {"measurement": "IC50", "setting": "HUVEC", "value": 0.82, "unit": "nM"},
      {"measurement": "association constant with MTs", "setting": "MTs", "value": "1.07e+07", "unit": "M⁻¹"},
      {"measurement": "population in G2/M", "setting": "mouse fibroblast cells [7]; after 9 h", "value": "~50", "unit": "%"},
      {"measurement": "population in G2/M", "setting": "mouse fibroblast cells [7]; by 27 h", "value": "~100", "unit": "%"},
      {"measurement": "IC50", "setting": "mouse fibroblast cells [8]", "value": 860, "unit": "nM"}
    ]},
    {"molecule": "[106Ru+2].[O-][Cl+3]([O-])([O-])[O-].[O-][Cl+3]([O-])([O-])[O-].c1cnc2c(c1)ccc1cccnc12.c1cnc2c(c1)ccc1cccnc12.c1cnc2c(c1)ccc1cccnc12", "note": "[[^106Ru(phen)3][ClO4]2]", "values": [
      {"measurement": "time to excretion of the intact cation in the urine", "setting": "[9]", "value": "about 12 h"},
      {"measurement": "time to excretion of the intact cation in the urine", "setting": "[10]", "value": "about 12 h"}
    ]},
    {"molecule": "[(DIP)2Ru(tatpp)Ru(DIP)2]^2+", "values": [
      {"measurement": "selectivity index (SI = IC50 MCF10/IC50 MCF7)", "setting": "MCF10 and MCF7 cells", "value": 11}
    ]},
    {"molecule": "[(DIP)2Ru(tatpp)]^2+", "values": [
      {"measurement": "selectivity index (SI = IC50 MCF10/IC50 MCF7)", "setting": "MCF10 and MCF7 cells", "value": 71}
    ]}
  ]
}
